The target of one experiment is T1, LaNR (Leucojum aestivum, UniProt Z9Z857OJM6).
T1 construct: full-length 269 aa (29 kDa), N-terminal MBP fusion (pMAL-c2x), tag kept, E. coli Rosetta (DE3) pLysS
As to the kind of experiment: HPLC-MS/MS of norbelladine formed, with and without NADPH. It counts as biochemical. The conditions noted are these: […] NADPH; […] tyramine, […],4-DHBA; […] sodium citrate pH […]; […] C; […] h.

For a further experiment, the target named is T2, NpNR (Narcissus papyraceus, UniProt A0A346TLF8).
T2 construct: gene NorRed1; full-length 269 aa (29 kDa), N-terminal MBP fusion (pMAL-c2x), tag kept, E. coli Rosetta (DE3) pLysS
The experiment is described as above. In kind it is biochemical. As to conditions: 1 mM NADPH; 10 uM tyramine, 300 uM 3,4-DHBA; 100 mM sodium citrate pH 6.0; 35 C; 2 h.

Experiment [1] concerns the target N. papyraceus noroxomaritidine/norcraugsodine reductase, yeast two-hybrid fusions (Narcissus papyraceus).

T2 sequence (A0A346TLF8 1-269): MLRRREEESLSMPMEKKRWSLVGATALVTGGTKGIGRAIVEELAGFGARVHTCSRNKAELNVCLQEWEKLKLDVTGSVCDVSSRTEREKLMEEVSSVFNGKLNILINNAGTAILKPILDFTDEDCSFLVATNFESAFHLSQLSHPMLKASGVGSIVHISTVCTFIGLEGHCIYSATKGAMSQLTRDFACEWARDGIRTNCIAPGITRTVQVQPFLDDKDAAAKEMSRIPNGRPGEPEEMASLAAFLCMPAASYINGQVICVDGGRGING
Chain of N. papyraceus noroxomaritidine/norcraugsodine reductase, yeast two-hybrid fusions (Narcissus papyraceus) (A0A346TLF8 entry or part of it): as the sequence (A0A346TLF8 1-269) above
T1 sequence (Z9Z857OJM6 1-271): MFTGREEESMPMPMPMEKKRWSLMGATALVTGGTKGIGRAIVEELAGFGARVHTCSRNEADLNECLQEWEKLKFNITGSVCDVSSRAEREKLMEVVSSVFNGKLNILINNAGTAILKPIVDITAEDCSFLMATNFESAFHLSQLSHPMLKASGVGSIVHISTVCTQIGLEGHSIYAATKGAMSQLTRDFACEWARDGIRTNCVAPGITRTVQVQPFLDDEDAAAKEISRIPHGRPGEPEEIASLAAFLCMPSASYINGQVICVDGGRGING

Regarding `NC(=O)C1=CN([C@@H]2O[C@H](COP(=O)(O)OP(=O)(O)OC[C@H]3O[C@@H](n4cnc5c(N)ncnc54)[C@H](OP(=O)(O)O)[C@@H]3O)[C@@H](O)[C@H]2O)C=CC1` [NADPH], the “HPLC-MS/MS of norbelladine formed, with and without NADPH” value on LaNR and at NpNR was “NR assays lacking NADPH resulted in no norbelladine production” in each case.
Take “N. papyraceus norbelladine synthase, yeast two-hybrid fusions (enzyme)”: the norbelladine produced by yeast cultures co-expressing NpNBS and NpNR, fed with tyramine and 3,4-DHBA (HPLC-MS/MS, peak area relative to papaverine); none detected with either enzyme alone (relative peak area ratio) in experiment [1] was 0.22.

Source of the values: publication PMC10499049, “Characterization of norbelladine synthase and noroxomaritidine/norcraugsodine reductase reveals a novel catalytic route for the biosynthesis of Amaryllidaceae alkaloids including the Alzheimer’s drug galanthamine” (Frontiers in Plant Science, 2023).
